# Reference: patent US11083725B2 (priority 2014, dated 2021)
# Tested on: NHBE cells
# Experiment: Biolog metabolic array: substrate use by NHBE cells with or without CA09 infection
# Format: cell-based, human
# Settings: for Substrate use, 590 nm absorbance normalized to zero hour, 1 hr: Biolog PMM2, 1 hr; for Substrate use, 590 nm absorbance normalized to zero hour, 5 hr: Biolog PMM2, 5 hr; for Substrate use, 590 nm absorbance normalized to zero hour, 7 hr: Biolog PMM2, 7 hr
# [1] = Control (uninfected) NHBE cells
# [2] = Virus (CA09-infected NHBE cells, MOI 1)
# [3] = Virus: CA09-infected NHBE cells, MOI 1, Biolog PMM2
# [4] = Virus (CA09-infected, MOI 1) NHBE cells
SMILES,"590 nm absorbance normalized to zero hour (substrate use), 1 hr [1]","590 nm absorbance normalized to zero hour (substrate use), 3 hr [1]","590 nm absorbance normalized to zero hour (substrate use), 4 hr [1]","590 nm absorbance normalized to zero hour (substrate use), 6 hr [1]","590 nm absorbance normalized to zero hour (substrate use), 8 hr [1]","590 nm absorbance normalized to zero hour (substrate use), 9 hr [1]","590 nm absorbance normalized to zero hour (substrate use), 10 hr [1]","590 nm absorbance normalized to zero hour (substrate use), 11 hr [1]","Substrate use, 590 nm absorbance normalized to zero hour, 1 hr [1]","Substrate use, 590 nm absorbance normalized to zero hour, 5 hr [1]","Substrate use, 590 nm absorbance normalized to zero hour, 7 hr [1]","590 nm absorbance normalized to zero hour (substrate use), 1 hr [3]","590 nm absorbance normalized to zero hour (substrate use), 2 hr [3]","590 nm absorbance normalized to zero hour (substrate use), 3 hr [3]","590 nm absorbance normalized to zero hour (substrate use), 4 hr [3]","590 nm absorbance normalized to zero hour (substrate use), 5 hr [3]","590 nm absorbance normalized to zero hour (substrate use), 6 hr [3]","590 nm absorbance normalized to zero hour (substrate use), 7 hr [3]","590 nm absorbance normalized to zero hour (substrate use), 8 hr [3]","590 nm absorbance normalized to zero hour (substrate use), 9 hr [3]",further results
"CC(O)C(C)O (stereo not shown) [2,3-Butanediol]",1.23,1.61,1.58,0.83,1.93,2.09,2.19,2.33,1.23,1.83,1.84,1.66,1.65,0.31,0.33,0.38,0.40,0.42,0.43,0.45,"590 nm absorbance normalized to zero hour (substrate use), 2 hr [1]: 1.54; 590 nm absorbance normalized to zero hour (substrate use), 1 hr [2]: 1.66; 590 nm absorbance normalized to zero hour (substrate use), 2 hr [2]: 1.65; 590 nm absorbance normalized to zero hour (substrate use), 3 hr [2]: 0.31; 590 nm absorbance normalized to zero hour (substrate use), 4 hr [2]: 0.33; 590 nm absorbance normalized to zero hour (substrate use), 5 hr [2]: 0.38; 590 nm absorbance normalized to zero hour (substrate use), 6 hr [2]: 0.40; 590 nm absorbance normalized to zero hour (substrate use), 7 hr [2]: 0.42; 590 nm absorbance normalized to zero hour (substrate use), 8 hr [2]: 0.43; 590 nm absorbance normalized to zero hour (substrate use), 9 hr [2]: 0.45; 590 nm absorbance normalized to zero hour (substrate use), 10 hr [2]: 0.42; 590 nm absorbance normalized to zero hour (substrate use), 11 hr [2]: 0.39; 590 nm absorbance normalized to zero hour (substrate use), 10 hr [3]: 0.42; 590 nm absorbance normalized to zero hour (substrate use), 11 hr [3]: 0.39"
NCCO [2-Aminoethanol],1.30,1.12,1.15,0.46,1.06,1.03,1.05,1.07,1.30,1.24,1.07,1.65,2.01,2.38,2.50,2.74,2.88,3.01,3.12,3.41,"590 nm absorbance normalized to zero hour (substrate use), 0 hr [1]: 1.00; Substrate use, 590 nm absorbance normalized to zero hour, 0 hr (Control (uninfected) NHBE cells, Biolog PMM2, 0 hr): 1.00; 590 nm absorbance normalized to zero hour (substrate use), 0 hr [4]: 1.00; 590 nm absorbance normalized to zero hour (substrate use), 1 hr [4]: 1.65; 590 nm absorbance normalized to zero hour (substrate use), 2 hr [4]: 2.01; 590 nm absorbance normalized to zero hour (substrate use), 3 hr [4]: 2.38; 590 nm absorbance normalized to zero hour (substrate use), 4 hr [4]: 2.50; 590 nm absorbance normalized to zero hour (substrate use), 5 hr [4]: 2.74; 590 nm absorbance normalized to zero hour (substrate use), 6 hr [4]: 2.88; 590 nm absorbance normalized to zero hour (substrate use), 7 hr [4]: 3.01; 590 nm absorbance normalized to zero hour (substrate use), 8 hr [4]: 3.12; 590 nm absorbance normalized to zero hour (substrate use), 9 hr [4]: 3.41; 590 nm absorbance normalized to zero hour (substrate use), 10 hr [4]: 3.22; 590 nm absorbance normalized to zero hour (substrate use), 11 hr [4]: 3.78; 590 nm absorbance normalized to zero hour (substrate use), 0 hr [3]: 1.00; 590 nm absorbance normalized to zero hour (substrate use), 10 hr [3]: 3.22; 590 nm absorbance normalized to zero hour (substrate use), 11 hr [3]: 3.78"
CC(=O)C(C)O (stereo not shown) [3-Hydroxy 2-Butanone],1.49,1.64,1.71,0.48,1.86,7.44,7.39,2.14,1.49,2.01,1.80,1.24,1.65,2.42,2.37,2.39,2.28,2.37,2.01,2.18,"590 nm absorbance normalized to zero hour (substrate use), 2 hr [1]: 1.75; 590 nm absorbance normalized to zero hour (substrate use), 1 hr [2]: 1.24; 590 nm absorbance normalized to zero hour (substrate use), 2 hr [2]: 1.65; 590 nm absorbance normalized to zero hour (substrate use), 3 hr [2]: 2.42; 590 nm absorbance normalized to zero hour (substrate use), 4 hr [2]: 2.37; 590 nm absorbance normalized to zero hour (substrate use), 5 hr [2]: 2.39; 590 nm absorbance normalized to zero hour (substrate use), 6 hr [2]: 2.28; 590 nm absorbance normalized to zero hour (substrate use), 7 hr [2]: 2.37; 590 nm absorbance normalized to zero hour (substrate use), 8 hr [2]: 2.01; 590 nm absorbance normalized to zero hour (substrate use), 9 hr [2]: 2.18; 590 nm absorbance normalized to zero hour (substrate use), 10 hr [2]: 2.16; 590 nm absorbance normalized to zero hour (substrate use), 11 hr [2]: 2.35; 590 nm absorbance normalized to zero hour (substrate use), 10 hr [3]: 2.16; 590 nm absorbance normalized to zero hour (substrate use), 11 hr [3]: 2.35"
CC(=O)CC(=O)O [Acetoacetic Acid],1.24,2.22,2.13,0.39,1.52,1.66,1.49,2.20,1.24,2.15,1.53,1.26,1.40,1.48,1.54,1.64,1.67,1.71,1.74,1.81,"590 nm absorbance normalized to zero hour (substrate use), 2 hr [1]: 1.37; 590 nm absorbance normalized to zero hour (substrate use), 1 hr [4]: 1.26; 590 nm absorbance normalized to zero hour (substrate use), 2 hr [4]: 1.40; 590 nm absorbance normalized to zero hour (substrate use), 3 hr [4]: 1.48; 590 nm absorbance normalized to zero hour (substrate use), 4 hr [4]: 1.54; 590 nm absorbance normalized to zero hour (substrate use), 5 hr [4]: 1.64; 590 nm absorbance normalized to zero hour (substrate use), 6 hr [4]: 1.67; 590 nm absorbance normalized to zero hour (substrate use), 7 hr [4]: 1.71; 590 nm absorbance normalized to zero hour (substrate use), 8 hr [4]: 1.74; 590 nm absorbance normalized to zero hour (substrate use), 9 hr [4]: 1.81; 590 nm absorbance normalized to zero hour (substrate use), 10 hr [4]: 1.74; 590 nm absorbance normalized to zero hour (substrate use), 11 hr [4]: 1.81; 590 nm absorbance normalized to zero hour (substrate use), 10 hr [3]: 1.74; 590 nm absorbance normalized to zero hour (substrate use), 11 hr [3]: 1.81"
